Laboratory results published in patent US20250325508A1, “MODULATORS OF PROTEASOME DYNAMICS AND/OR FUNCTION, COMPOSITIONS, METHODS, AND THERAPEUTIC USES THEREOF” (TECHNION RESEARCH & DEVELOPMENT FOUNDATION LIMITED, priority 2022, published 2025).

Columns and labels:
[1] = system: 26S proteasome; assay: Proteasome subcellular localization in cultured cells (immunofluorescence, cell fractionation/Western blot); assay type: cell-based, human; settings: for proteasome translocation from the nucleus to the cytosol: amino acid starvation, substance added to starvation medium; for proteasome localization: non-stressed / well-fed cells, complete medium; for proteasome dynamics under known p38 activators: RT4 and HeLa cells
Method: Cells were incubated for 20 min in fractionation buffer [20 mM HEPES pH 7.3, 10 mM KCl, 5 mM ATP, 5 mM MgCl2, and protease inhibitor cocktail (Roche)], followed by the addition of Digitonin (0.01%). They were then mixed thoroughly and centrifuged at 1,000×g for 5 min. The supernatant was collected as cytosolic fraction, and the pellet was washed with fractionation buffer supplemented with NP-40 (0.05%) and centrifuged, and the pellet (nuclei) was resuspended in fractionation buffer supplemented with sodium deoxycholate (0.5%), followed by its sonication.
(§1) Cells were washed twice with ice cold PBS and scraped into lysis buffer (50 mM Tris-HCl, pH 7.4, 130 mM NaCl, 0.5% NP-40) supplemented with freshly added protease inhibitor cocktail, 5 mM ATP, 10 mM iodoacetamide, and 5 mM N-ethyl maleimide. Protein concentration was measured by the BCA assay according to the manufacturer's instructions (Pierce, Rockford, IL). 30 μg of cellular protein were resolved via SDS-PAGE, transferred to a nitrocellulose membrane and immunoblotted with the appropriate antibody.
Cells were seeded on glass cover slips for 36 h. Following the indicated treatments, they were fixed with 4% PFA for 15 min, washed with phosphate-buffered saline (PBS) and incubated in PBS containing 10% goat serum for 1 h at room temperature, followed by 2 h incubation with the indicated primary antibody. Following extensive wash with PBS, the fixed cells were incubated with the relevant secondary antibody for 1 h, washed and mounted. Images were acquired using Zeiss LSM 700 confocal microscope (Zeiss, Oberkochen, Germany). […]

[2] = system: STAT3; assay: Western blot for STAT3 phosphorylated at Tyr705; assay type: cell-based, human; settings: Torin1 treatment
Method: as §1

[3] = system: HeLa cells; assay: Amino acids level measurement (LC-MS); assay type: cell-based, human; settings: Torin1 treatment relative to control
Method: Metabolic analysis was carried out as previously described [G. M. MacKay et al., 1st Ed. (Elsevier Inc., 2015)]. Briefly, cells were rapidly washed 3 times with ice-cold PBS and extracted with an aqueous solution of 50% Methanol, and 30% Acetonitrile. Samples were centrifuged at 16,000×g for 10 min at 4° C., and the supernatants were analyzed using HPLC-MS (Q-Exactive Orbitrap Mass Spectrometer (Thermo Scientific) coupled to Thermo Scientific UltiMate 3000 HPLC system). The HPLC setup consisted of a ZIC-PHILIC column (SeQuant, 150×2.1 mm, 5 μm, Merck) with a ZIC-PHILIC guard column (SeQuant, 20×2.1 mm). The aqueous mobile phase solvent was 20 mM ammonium carbonate adjusted to pH 9.4 with 0.1% ammonium hydroxide. The organic mobile phase was acetonitrile. Amino acids and other metabolites were separated over a 15 min linear gradient from 80% organic to 80% aqueous. The column temperature was 45° C., the flow rate 200 μl/min, and the run time 27 min. All metabolites were detected across a mass range of 75-1,000 m/z using the Q-Exactive mass spectrometer at a resolution of 35,000 (at 200 m/z) with electrospray ionization and polarity switching mode. Mass accuracy obtained for all metabolites was below 5 ppm. Data were acquired with Thermo Xcalibur software. The peak areas of different amino acids were determined using Thermo TraceFinder software through which metabolites were identified by the exact mass of the singly charged ion and the known retention time on the HPLC column. Commercially available standard compounds had been analyzed before to determine ion masses and retention times on the ZIC-PHILIC column. Protein quantitation based on the Lowry method was performed for normalization. The figure presents mean+/−SD of three replicates.

[4] = system: HeLa and RT4 cells; assay: Cell survival assay (live/dead imaging); assay type: cell-based
Method: Data analysis was performed using the Live/Dead module of the MetaXpress software (Molecular Devices). […] Intensities were quantified using Li-Cor imager and software (Odyssey).

In the case of `N[C@@H](Cc1c[nH]c2ccccc12)C(=O)O` [Trp, Tryptophan], the “proteasome translocation from the nucleus to the cytosol” value (from here on “proteasome translocation”) [1] was “inhibitory effect on proteasome translocation”.

In the case of `CCC(=O)N1CCN(c2ccc(-n3c(=O)ccc4cnc5ccc(-c6cnc7ccccc7c6)cc5c43)cc2C(F)(F)F)CC1` [Torin1], the proteasome localization [1] was “induced nuclear export of both 20S and 19S sub-complexes”, the “STAT3 Y705 phosphorylation” value [2] was “upregulation of Y705 phosphorylation” and the “level of amino acids” value [3] was “gain in amino acids”.

For `N[C@@H](Cc1ccc(O)cc1)C(=O)O` [Tyr, 4-hydroxyphenylalanine], the “proteasome translocation” value [1] was “inhibitory effect on proteasome translocation”.

With Ivermectin the proteasome localization [1] was “cytosolic accumulation”.

With `N[C@@H](Cc1ccccc1)C(=O)O` [Phe, Phenylalanine] the “proteasome translocation” value [1] was “inhibitory effect on proteasome translocation”.

For `COc1ccc(C[C@H]2NC[C@H](O)[C@H]2OC(C)=O)cc1` [anisomycin], the “proteasome dynamics under known p38 activators” value [1] was “the proteasome was locked in the nucleus” and the “cell death under known p38 activators” value [4] was “many of the cells died”.

In the case of `C[C@@H]1C[C@@H]([C@H](O)CC2CC(=O)NC(=O)C2)C(=O)[C@@H](C)C1` [cycloheximide], the “restoration of the nuclear proteasomal pool” value ([1]; replenishment of amino acids after starvation, in presence of substance) was “did not prevent restoration of the nuclear proteasomal pool”.

With `OC[C@@H](O)[C@@H](O)[C@H](O)[C@@H](O)CO` [hyperosmotic stress, Sorbitol] the “proteasome dynamics under known p38 activators” value [1] was “the proteasome was locked in the nucleus” and the “cell death under known p38 activators” value [4] was “many of the cells died”.

In the case of `O=[N+]([O-])c1ccc2c(c1)S(=O)(=O)C=C2` [Stattic], the “proteasome translocation” value [1] was “prevented proteasome translocation from the nucleus to the cytosol”.
